Test results published in PubChem BioAssay AID504820 (Southern Research Specialized Biocontainment Screening …, 2011).
“And” between values parts separate entries of the source, which are not always exact repeats. Identical values can stand only once. The source made the active and inactive calls. The rule behind the calls is not given here.

Experiments:
[1] = RSV-induced CPE protection of HEp-2 cells – cell-based, synthesized compounds, set 8, dose response (AID 504820); settings: HEp-2 cells, RSV cytopathic effect inhibition; at 50 µM (top of the series)
[2] = system: HEp-2 cells, RSV cytopathic effect inhibition; experiment: as above

With `CC(C)(C)NC(=O)[C@@H]1CCCN1S(=O)(=O)c1cccc2cccnc12` the CPE inhibition [1] was 1.38% (inactive).

In the case of `COCCCNC(=O)c1ccc(Cn2c(=O)c3ccccc3n(Cc3ccc(C)c(C(F)(F)F)c3)c2=O)cc1`, the IC50 [2] is reported as 1.5 µM.

In the case of `Cc1ccc(NC(=O)C2CCCN2S(=O)(=O)c2cccc3cc(C)cnc23)c(C)c1` (configuration not stated), the CPE inhibition [1] is reported as 11.1% (inactive).

With `Cc1ccc(NC(=O)C2CCCN2S(=O)(=O)c2cccc3cnccc23)c(C)c1` (configuration not stated) the CPE inhibition [1] was 3.25% (inactive).

In the case of `COCCCNC(=O)c1ccc(Cn2c(=O)c3ccccc3n(Cc3ccc(OC)cc3)c2=O)cc1`, the IC50 [2] is reported as 2.3 µM.

In the case of `CCc1ccccc1NC(=O)[C@@H]1CCCN1S(=O)(=O)c1cccc2cccnc12`, the IC50 [2] is reported as 20.8 µM.

For `Cc1ccc(C)c(NC(=O)[C@@H]2CCCN2S(=O)(=O)c2cccc3cccnc23)c1`, the IC50 [2] was 2.9 µM and 1.7 µM.

For `Cc1ccc(Cl)cc1NC(=O)[C@@H]1CCCN1S(=O)(=O)c1cccc2cccnc12`, the IC50 [2] was 2.5 µM.

In the case of `Cc1cccc(C)c1NC(=O)[C@@H]1CCCN1S(=O)(=O)c1cccc2cccnc12`, the CPE inhibition [1] is reported as 44.1% (inactive).

With `Cc1ccc(Cn2c(=O)n(Cc3ccc(C(=O)Nc4cc(C)nc5ccccc45)cc3)c(=O)c3ccccc32)cc1` the CPE inhibition [1] was 2.83% (inactive).

In the case of `CCCn1c(=O)n(Cc2ccc(C(=O)NCCCOC)cc2)c(=O)c2ccccc21`, the CPE inhibition [1] is reported as 2.28% (inactive).

With `Cc1ccc(Cn2c(=O)n(Cc3ccc(C(=O)NC(C)(C)C)cc3)c(=O)c3ccccc32)cc1` the IC50 [2] was 1.25 µM.

In the case of `Cc1ncccc1NC(=O)[C@@H]1CCCN1S(=O)(=O)c1cccc2cccnc12`, the CPE inhibition [1] is reported as 3.67% (inactive).

For `Cc1ccc(NC(=O)[C@@H]2CCCN2S(=O)(=O)c2cccc3nonc23)c(C)c1`, the CPE inhibition [1] was 6.16% (inactive).

For `Cc1ccc(NC(=O)C2CCCN2S(=O)(=O)c2cccc3ccccc23)c(C)c1` (configuration not stated), the CPE inhibition [1] was 1.6% (inactive).

With `Cc1ccc(NC(=O)CN(C)S(=O)(=O)c2cccc3cccnc23)c(C)c1` the CPE inhibition [1] was 46% (inactive).

In the case of `Cc1ccc(NC(=O)C2CCCN2S(C)(=O)=O)c(C)c1` (configuration not stated), the CPE inhibition [1] is reported as 2.52% (inactive).

In the case of `Cc1ccc(C(C)(C)C)cc1NC(=O)[C@@H]1CCCN1S(=O)(=O)c1cccc2cccnc12`, the CPE inhibition [1] is reported as 2.81% (inactive).

For `Cc1cc(NC(=O)[C@@H]2CCCN2S(=O)(=O)c2cccc3cccnc23)n(C(C)(C)C)n1`, the CPE inhibition [1] was 33.2% (inactive).

With `O=C([C@@H]1CCCN1S(=O)(=O)c1cccc2cccnc12)N1CCOCC1` the CPE inhibition [1] was 1.71% (inactive).

`COCCCNC(=O)c1ccc(Cn2c(=O)c3ccccc3n(Cc3ccc(Br)cc3)c2=O)cc1` showed an IC50 [2] of 1.15 µM.

In the case of `O=C(Nc1ccc(Cl)cc1Cl)[C@@H]1CCCN1S(=O)(=O)c1cccc2cccnc12`, the CPE inhibition [1] is reported as 2.1% (inactive).

In the case of `Cc1ccc(C(F)(F)F)cc1NC(=O)[C@@H]1CCCN1S(=O)(=O)c1cccc2cccnc12`, the CPE inhibition [1] is reported as 15% (inactive).

For `Cc1ccc(Cn2c(=O)n(Cc3ccc(C(=O)Nc4nccs4)cc3)c(=O)c3ccccc32)cc1`, the CPE inhibition [1] was 2.96% (inactive).

With `Cc1ccc(NC(=O)[C@@H]2CCCN2S(=O)(=O)c2cccc3cccnc23)c(C)n1` the CPE inhibition [1] was 4.2% (inactive).

In the case of `Cc1ccc(NC(=O)[C@@H]2CCCN2S(=O)(=O)c2cccc3cccnc23)cc1`, the CPE inhibition [1] is reported as 25.5% (inactive).

In the case of `COCCCNC(=O)c1ccc(Cn2c(=O)c3ccccc3n(C)c2=O)cc1`, the CPE inhibition [1] is reported as 19.2% (inactive).

In the case of `Cc1cccc(NC(=O)[C@@H]2CCCN2S(=O)(=O)c2cccc3cccnc23)c1C`, the IC50 [2] is reported as 8.9 µM.

For `O=C(Nc1ccccc1)[C@@H]1CCCN1S(=O)(=O)c1cccc2cccnc12`, the CPE inhibition [1] was 12.2% (inactive).

In the case of `COc1ccc(C)c(NC(=O)[C@@H]2CCCN2S(=O)(=O)c2cccc3cccnc23)c1`, the IC50 [2] is reported as 4.8 µM.

In the case of `COc1ccc(C)cc1NC(=O)[C@@H]1CCCN1S(=O)(=O)c1cccc2cccnc12`, the CPE inhibition [1] is reported as 4.82% (inactive).

In the case of `COCCCNC(=O)c1ccc(Cn2c(=O)c3ccccc3n(Cc3ccc([N+](=O)[O-])cc3)c2=O)cc1`, the IC50 [2] is reported as 0.55 µM.

With `COc1ccccc1CNC(=O)C1CCN(S(=O)(=O)c2cccc3nonc23)CC1` the IC50 [2] was 3.35 µM.

For `Cc1ccc(NC(=O)[C@H]2CCCN2S(=O)(=O)c2cccc3cccnc23)c(C)c1`, the CPE inhibition [1] was 26.6% (inactive).

Work on `Cc1ccccc1NC(=O)[C@@H]1CCCN1S(=O)(=O)c1cccc2cccnc12` yielded an IC50 [2] of 29 µM.

`Cc1ccc(Cn2c(=O)n(Cc3ccc(C(=O)Nc4ccncc4)cc3)c(=O)c3ccccc32)cc1` showed an IC50 [2] of 2.65 µM.

`COCCCNC(=O)c1ccc(Cn2c(=O)c3ccccc3n(Cc3ccc4nonc4c3)c2=O)cc1` showed an IC50 [2] of 4.7 µM.

With `COCCCNC(=O)c1ccc(Cn2c(=O)c3ccccc3n(Cc3ccc(C(F)(F)F)cc3)c2=O)cc1` the IC50 [2] was 1.4 µM.

With `Cc1ccc(NC(=O)C2CCCN2S(=O)(=O)c2ccccc2)c(C)c1` (configuration not stated) the CPE inhibition [1] was 1.19% (inactive).

Compound `CC(C)c1ccccc1NC(=O)[C@@H]1CCCN1S(=O)(=O)c1cccc2cccnc12` has an IC50 [2] of 17.2 µM.

In the case of `Cc1ccc(F)cc1NC(=O)[C@@H]1CCCN1S(=O)(=O)c1cccc2cccnc12`, the CPE inhibition [1] is reported as 10.8% (inactive).

In the case of `Cc1cc(C)cc(NC(=O)[C@@H]2CCCN2S(=O)(=O)c2cccc3cccnc23)c1`, the CPE inhibition [1] is reported as 33.1% (inactive).

Compound `Cc1ccc(NC(=O)C2CCCN2S(=O)(=O)c2cccc3cccnc23)c(C)c1` (configuration not stated) has an IC50 [2] of 12.6 µM.

With `COCCCNC(=O)c1ccc(Cn2c(=O)c3ccccc3n(Cc3cc(C)on3)c2=O)cc1` the CPE inhibition [1] was 6.33% (inactive).

With `Cc1ccc(NC(=O)[C@@H]2CCCN2S(=O)(=O)c2cccc3cccnc23)c(C)c1` the IC50 [2] was 3 µM.

In the case of `COCCCNC(=O)c1ccc(Cn2c(=O)c3ccc(Br)cc3n(Cc3ccc(C)cc3)c2=O)cc1`, the CPE inhibition [1] is reported as 1.9% (inactive).

In the case of `Cc1ccc(C(C)C)cc1NC(=O)[C@@H]1CCCN1S(=O)(=O)c1cccc2cccnc12`, the CPE inhibition [1] is reported as 7.9% (inactive).

In the case of `Cc1ccc(Cl)c(NC(=O)[C@@H]2CCCN2S(=O)(=O)c2cccc3cccnc23)c1`, the CPE inhibition [1] is reported as 8.49% (inactive).

With `Cc1cccc(NC(=O)[C@@H]2CCCN2S(=O)(=O)c2cccc3cccnc23)c1` the CPE inhibition [1] was 12.8% (inactive).

With `Cc1ccc(NC(=O)CNS(=O)(=O)c2cccc3cccnc23)c(C)c1` the CPE inhibition [1] was 4.34% (inactive).

In the case of `Cc1ccc(NC(=O)C2CCCN2S(=O)(=O)c2ccc3ncccc3c2)c(C)c1` (configuration not stated), the CPE inhibition [1] is reported as 1.75% (inactive).

In the case of `Cc1ccc(NC(=O)C(C)NS(=O)(=O)c2cccc3cccnc23)c(C)c1` (configuration not stated), the CPE inhibition [1] is reported as 4.35% (inactive).
